Laboratory results as given in US7914797B2 (priority 2005, dated 2011).

The sequences below were run against HLA-A2 on T2 cells (Homo sapiens, UniProt P04439, D140Y/D185E/D98H/E176V/E277Q/G131W/G231S/I119V/I121R/I166T/I218V/L300P/L318F/N151K/N90K/P208A/P217A/Q86G/Q94H/R138H/R169H/T345S).
Type: binding

Sequence | binding of peptide to HLA-A2 on T2 cells
ELRSRYWAI [NP 380-388] | some low binding capacity, which was not dose dependent
LLTEVETYV [M1 3-11] | High and dose dependent binding
PKYVKQNTLKLAT [HA 307-319] | some low binding capacity, which was not dose dependent
SKAYSNCYPYDVPDYASL [HA 91-108 peptide] | binding capacity only at the higher (100 μM) concentration
